The values below come from patent EP1330254B1, “TREATMENT OF CANCERS BY APLIDINE IN CONJUNCTION WITH CARNITINE OR ACETYLCARNITINE” (priority 2000, dated 2002).

Data set [1] deals with cell cycle. The conditions noted are these: flow cytometric analysis; cited from earlier work.
In data set [2] the target is T1, ornithine decarboxylase (Homo sapiens, UniProt P11926).
T1 construct: endogenous in cells; host or cells: CT-1, CT-2 and HT-29 colon cell lines
The conditions noted are these: all three cell lines CT-1, CT-2, HT-29; cited from earlier work.

Data set [3] deals with MDA-MB231 and MCF-7. Conditions: treated breast cancer cells; cited from earlier work.
Data set [4] can be described thus: Phase I dosing regimes with and without carnitine (MTD, DLT, RD). It is filed as in vivo, human. Set-up: recommended dose, RD: unit not given here. The source says: The Recommended Dose (RD) is the highest dose which can be safely administered to a patient producing tolerable, manageable and reversibly toxicity according to the Common Toxicity Criteria established by the National Cancer Institute, (USA) with no more than 2 out of 6 patients presenting any dose limiting toxicities (DLT). Guidelines for cancer therapy frequently call for administration of chemotherapeutic agents at the highest safe dose at which toxicity is manageable in order to achieve maximum efficacy (DeVita, V.T. Jr., Hellman, S. and Rosenberg, S.A., Cancer: Principles and Practice of Oncology, 3rd ed., 1989, Lipincott, Philadelphia).
DLTs for aplidine using this method of treatment were determined in clinical studies. These studies established a recommended dose level for differing kinds of dosing protocols.

Where [5] appears, read: 24 hour infusion every 2 weeks, L-carnitine daily.
Where [6] appears, read: weekly 1 hour infusion for 3 weeks, 1 week rest.
[7] abbreviates: weekly 24 hour infusion for 3 weeks, 1 week rest.

Starred links: 1 amine or outer side, 2 acyl side, 3 side chain; linkers in the order of their positions; H or OH if unused. Positions of bridges follow the written chain, without caps; N, C: chain ends. Non-standard residues stand in square brackets, D forms with d. Residues, ends and D or L forms follow the SMILES beside them. *: point of attachment. X1 = CC[C@H](C)[C@@H](N[*:1])[C@@H](O)CC(=O)O[C@H](C(=O)[C@H](C)C(=O)[*:2])C(C)C; NMeY = CN[C@@H](Cc1ccc(O)cc1)C(=O)O; dNMeL = CN[C@H](CC(C)C)C(=O)O; Pyruvoyl = CC(=O)C(=O)*

T1 sequence (P11926 whole entry): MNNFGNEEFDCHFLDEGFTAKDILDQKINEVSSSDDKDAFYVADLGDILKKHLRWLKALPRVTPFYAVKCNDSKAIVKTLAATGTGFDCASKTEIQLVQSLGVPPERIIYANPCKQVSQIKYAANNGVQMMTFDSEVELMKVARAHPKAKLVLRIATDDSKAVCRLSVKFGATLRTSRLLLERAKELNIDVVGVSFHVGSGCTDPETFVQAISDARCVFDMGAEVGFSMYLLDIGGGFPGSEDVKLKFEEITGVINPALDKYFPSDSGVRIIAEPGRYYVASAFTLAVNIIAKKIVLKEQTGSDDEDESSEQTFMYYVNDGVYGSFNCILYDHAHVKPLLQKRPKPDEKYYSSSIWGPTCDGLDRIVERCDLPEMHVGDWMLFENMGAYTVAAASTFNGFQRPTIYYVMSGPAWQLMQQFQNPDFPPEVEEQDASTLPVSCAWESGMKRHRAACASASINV

Turning to `CC[C@H](C)[C@H]1NC(=O)[C@@H](NC(=O)[C@@H](CC(C)C)N(C)C(=O)[C@@H]2CCCN2C(=O)C(C)=O)[C@@H](C)OC(=O)[C@H](Cc2ccc(OC)cc2)N(C)C(=O)[C@@H]2CCCN2C(=O)[C@H](CC(C)C)NC(=O)[C@@H](C)C(=O)[C@H](C(C)C)OC(=O)C[C@@H]1O` [aplidine, Dehydrodidemnin B] (Pyruvoyl-P[dNMeL]T[X1]LP[NMeY](Me); ester 3-C), in data set [1], the cell cycle perturbations entry is listed as “did not induce any apparent cell cycle periubations”. In addition, the ornithine decarboxylase activity result in data set [2] is listed as “decreased”. In data set [3], the spermidine and spermine result is on record as “significant increase”. For the same molecule, the dose-limiting toxicity result is on record as “Muscular/long lasting emesis” in data set [4] (1-hour infusion for 5 consecutive days every 3 weeks); “Muscular” in data set [4] (24 hour infusion every 2 weeks); “Flu-like syndrome” in data set [4] (setting [5]); “Muscular” in data set [4] (setting [6]); “Muscular/ hepatic” in data set [4] (setting [7]). In addition, the “recommended dose, RD” value came out at 5000 in data set [4] (24 hour infusion every 2 weeks), 7000 in data set [4] (setting [5]), 3250 in data set [4] (setting [6]) and 3750 in data set [4] (setting [7]). Moreover, the RD in data set [4] (with L-carnitine 0.1 g/kg /day, for Phase II studies) was determined as 7 mg/m^2.
